Earlier results in patent US6500632B1, “Assay for screening inhibitors of C4 plant enzymes” (Australian Institute of Marine Science, priority 1998, dated 2002).

Legend:
[1] = biological target: T1, phosphoenolpyruvate carboxylase (Zea mays, UniProt P04711); settings: literature (Jenkins et al.; McFadden et al.)
T1 sequence (P04711 1-970): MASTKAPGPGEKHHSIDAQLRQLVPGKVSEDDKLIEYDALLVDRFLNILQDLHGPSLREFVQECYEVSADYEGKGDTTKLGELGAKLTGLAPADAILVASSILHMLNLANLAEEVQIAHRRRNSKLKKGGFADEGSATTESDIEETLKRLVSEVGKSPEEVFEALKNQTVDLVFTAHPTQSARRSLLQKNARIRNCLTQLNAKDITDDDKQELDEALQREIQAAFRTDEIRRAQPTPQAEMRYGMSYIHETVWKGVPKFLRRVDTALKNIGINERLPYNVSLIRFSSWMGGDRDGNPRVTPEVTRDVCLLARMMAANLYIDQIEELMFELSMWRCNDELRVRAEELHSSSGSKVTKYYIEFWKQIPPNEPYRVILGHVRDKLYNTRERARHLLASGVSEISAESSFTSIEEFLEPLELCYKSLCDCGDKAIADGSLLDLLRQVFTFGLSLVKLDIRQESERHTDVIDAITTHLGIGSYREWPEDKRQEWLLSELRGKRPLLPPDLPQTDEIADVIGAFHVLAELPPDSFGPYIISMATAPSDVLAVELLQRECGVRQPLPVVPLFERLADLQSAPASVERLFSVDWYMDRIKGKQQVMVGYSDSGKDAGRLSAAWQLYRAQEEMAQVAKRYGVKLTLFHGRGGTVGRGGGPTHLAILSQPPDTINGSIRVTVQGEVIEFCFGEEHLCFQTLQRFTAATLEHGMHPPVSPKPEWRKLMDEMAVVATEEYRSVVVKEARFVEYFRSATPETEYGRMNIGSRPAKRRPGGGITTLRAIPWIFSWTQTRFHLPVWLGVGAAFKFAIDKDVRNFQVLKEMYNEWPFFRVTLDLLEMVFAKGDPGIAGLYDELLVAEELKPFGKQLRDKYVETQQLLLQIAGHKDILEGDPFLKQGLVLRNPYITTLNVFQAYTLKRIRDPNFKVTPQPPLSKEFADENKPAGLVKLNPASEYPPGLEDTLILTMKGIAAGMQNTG

C4 plants = settings: literature

inhibition of a C4 enzyme (phosphoenolpyruvate carboxylase) [1]: specifically inhibited
Substance: 3,3-dichloro-2(dihydroxy-phosphinoylmethyl)propenoate
effect on the growth of C4 plants (C4 plants): no effect
